Read-outs that look alike come from different tables or passages of the source.
Tests used:
[1] = system: virus of influenza, type A, (H1N1); test: microbe, parasite or virus in culture
[2] = system: ascarid ovi; test: animal or person; assay type: in vivo, pig.ascarid
[3] = system: houseflies; test: whole plant or invertebrate; conditions: Musca domestica
[4] = system: Colibacillus; test: microbe, parasite or virus in culture; assay type: cell-based; conditions: read-out: Efficiency of the preparation, % Colibacillus
[5] = system: Staphylococcus aureus; test: microbe, parasite or virus in culture; assay type: cell-based; conditions: read-out: Efficiency of the preparation, % Staphylococcus aureus
[6] = system: Virus of hepatitis B; test: microbe, parasite or virus in culture; conditions: 0.5 h, read-out: Death of viruses (%) at 30 minutes exposure, Virus of hepatitis B
[7] = system: Alternaria radicina; assay type: cell-based
[8] = system: Aspergillus niger; assay type: cell-based
[9] = system: Fusarium oxysporum; assay type: cell-based
[10] = system: Helminthosporum saturem; assay type: cell-based
[11] = system: Venturia inaequalis; assay type: cell-based
[12] = system: Penicillium sporum; assay type: cell-based
[13] = system: Candida albicans; test: microbe, parasite or virus in culture; assay type: cell-based
[14] = system: Candida tropicalis; test: microbe, parasite or virus in culture; assay type: cell-based
[15] = H1N1, 0.5 h, read-out: Death of viruses (%) at 30 minutes exposure, Virus of influenza A
[16] = 24 h, read-out: Death of ascarid ovi, % after 24 hrs
[17] = 48 h, read-out: Death of ascarid ovi, % after 48 hours
[18] = H1N1, read-out: Virucidal activity of the preparation in respect of the virus of influenza, type A, %
[19] = read-out: Death of ascarid ovi, % Tests laboratory
[20] = 48 h, read-out: Death of flies, % after 48 hours
[21] = 72 h, read-out: Death of flies, % after 72 hours
[22] = 24 h, read-out: Death of ascarid ovi, % after 24 hours

| SMILES | killing at 1 % [1, 18] [%] | killing at 2 % [1, 18] [%] | killing at 3 % [2, 19] [%] | mortality at 2 % [3, 20] [%] | mortality at 2 % [3, 21] [%] | other results |
| --- | --- | --- | --- | --- | --- | --- |
| CCOP(=O)(NC(CCl)C(Cl)c1ccc([N+](=O)[O-])cc1)OCC (stereo not drawn) [Example 14, 1-para-nitrophenyl-1,3--dichloropropanamidophosphoric acid diethyl ether] |  |  |  |  |  | killing at 1 % [1, 15]: 90%; killing at 3 % [2, 16]: 100%; killing at 3 % [2, 17]: 100%; killing at 3 % ([2]; 72 h, read-out: Death of ascarid ovi, % after 72 hours): 100% |
| CCOP(=O)(O)NC(CO)C(O)c1ccc([N+](=O)[O-])cc1 (stereo not drawn) [Example 29, 1-para-nitrophenyl-1,3-propanediolamidophos-phoric acid ethyl ether] | 83.3 | 86.7 | 100 | 56 | 92.3 |  |
| CCOP(=O)(O)NC(CCl)C(O)c1ccc([N+](=O)[O-])cc1 (stereo not drawn) [Example 30] | 71.2 | 79 | 100 | 42.8 | 94 |  |
| CCOP(=O)(O)NC(CCl)C(Cl)c1ccc([N+](=O)[O-])cc1 (stereo not drawn) [Example 31, 1-para-nitrophenyl-1,3-dichloropropanamidophosphor-ic acid ethyl ether] | 36.9 | 46.9 | 100 | 44.2 | 91.3 |  |
| O=C(N[C@H](COP(=O)(NC(CCl)C(O)c1ccc([N+](=O)[O-])cc1)OC[C@@H](NC(=O)C(Cl)Cl)[C@H](O)c1ccc([N+](=O)[O-])cc1)[C@H](O)c1ccc([N+](=O)[O-])cc1)C(Cl)Cl (stereo partly drawn) [Example 32] |  |  | 100 |  |  |  |
| O=[N+]([O-])c1ccc(C(O)C(CCl)NP(=O)(O)Oc2ccccc2)cc1 (stereo not drawn) [Example 58] | 83.4 | 86 |  | 72 | 99 | killing at 2 % [2, 22]: 95.4%; killing at 2 % [2, 17]: 100% |
| O=[N+]([O-])c1ccc(C(Cl)C(CCl)NP(=O)(O)Oc2ccccc2)cc1 (stereo not drawn) [Example 59, 1-para-nitrophenyl-1,3-dichloropropane--2-amidophosphoric acid monophenyl ether] | 92.3 | 96.1 |  | 60 | 91.2 | killing at 2 % [2, 22]: 91.8%; killing at 2 % [2, 17]: 100% |
| O=S(=O)(NCl)c1ccccc1 [Known bactericidal preparation, Sodium N-Chlorobenzenesulphamide, reference compound] | 22 | 28 |  |  |  | killing at 0.5 % [4]: 100%; killing at 0.5 % [5]: 100% |
| CNC(=S)S [Known ovocidal preparation (carbathion), sodium N-methyldithiocarbamate dihydrate, reference compound] |  |  | 80 |  |  | killing at 2 % [2, 22]: 60%; killing at 3 % [2, 16]: 100%; killing at 2 % [2, 17]: 80%; killing at 3 % [2, 17]: 100% |
| O=S(=O)(NCl)c1ccccc1 [Known preparation] |  |  |  | 81 | 84 | killing at 1 % [6]: 50%; killing at 1 % [1, 15]: 25%; mortality at 3 % ([3]; 24 h, read-out: Death of flies, % after 24 hours): 86%; mortality at 3 % [3, 21]: 92% |
| O=C1C(Cl)=C(Cl)C(=O)c2ccccc21 [Phygon, 2,3-dichloronaphtho-quinone-1,4, reference compound] |  |  |  |  |  | Mycelium growth inhibition, % to the control, Alternaria radicina [7]: 94%; Mycelium growth inhibition, % to the control, Aspergillus niger [8]: 100%; Mycelium growth inhibition, % to the control, Fusarium oxisporum [9]: 58%; Mycelium growth inhibition, % to the control, Helminthosporum saturem [10]: 92%; Mycelium growth inhibition, % to the control, Venturia inaequalis [11]: 98%; Mycelium growth inhibition, % to the control, Penicillium sporum [12]: 100%; killing at 0.05 % ([13]; 2 h, read-out: Death of test fungi, % to the control, Candida albicans 2 hrs): 68%; killing at 0.05 % ([13]; 20 h, read-out: Death of test fungi, % to the control, Candida albicans 20 hrs): 100%; killing at 0.05 % ([14]; 2 h, read-out: Death of test fungi, % to the control, Candida tropicalis 2 hrs): 76%; killing at 0.05 % ([14]; 20 h, read-out: Death of test fungi, % to the control, Candida tropicalis 20 hrs): 100% |
